# US11357817B2, “Immunoproteasome inhibitor” (The Regents of the University of California, priority 2017, dated 2022)
# Assays:
# [1] = test system: P. falciparum Dd2; test: P. falciparum Dd2 asexual blood stage SYBR Green I compound sensitivity assay; format: cell-based, Plasmodium falciparum; conditions: for Selectivity Index: P. falciparum activity versus HepG2 activity; for IC50: asexual blood stage, 72 hour SYBR green assay
# Protocol: P. falciparum Dd2 strain parasites were cultured under standard conditions (31), using RPMI media supplemented with 0.05 mg/ml gentamycin, 0.014 mg/mL hypoxanthine (prepared fresh), 38.4 mM HEPES, 0.2% Sodium Bicarbonate, 3.4 mM Sodium Hydroxide, 0.05% O+ Human Serum (Denatured at […] for 40 min and From Interstate Blood Bank, Memphis, Tenn.) and 0.0025% Albumax). Human O+ whole blood was obtained from TSRI blood bank (La Jolla, Calif.). Leukocyte-free erythrocytes are stored at 50% hematocrit in RPMI-1640 screening media (as above, but without O+ human serum and with 2× albumax concentration) at 4° C. for one to three weeks before experimental use. Cultures were monitored every one to two days via Giemsa-stained thin smears.
# Compound susceptibility was measured using the malaria SYBR Green I-based fluorescence assay (32). Asynchronous P. falciparum parasites (Dd2 strain) were cultured in standard conditions before being plated for the assays. Each compound was tested over 72 hours in technical duplicates on a twelve-point concentration curve prepared by three-fold dilution from 6.7 μM to 0.11 nM. At least three independent experiments were carried out for IC50 determination. Artemisinin and chloroquine were used as controls. IC50 values were obtained using normalized fluorescence intensity from SYBR green I and analyzed via non-linear variable slope four-parameter regression curve-fitting model in Prism 6 (GraphPad Software Inc).
# [2] = test system: HepG2 cells; test: HepG2 cytotoxicity assay; format: cell-based; conditions: Homo sapiens
# Protocol: The liver-stage and HepG2 toxicity assays were performed as previously reported (35). Briefly, HepG2-A16-CD81EGFP, human hepatocarcinoma HepG2 cells stably transformed to express the tetraspanin CD81 receptor (36, 37) and thus susceptible to P. berghei infection, were cultured at 37° C. in 5% CO2 in DMEM (Life Technologies, Calif.) supplemented with 10% FBS, 0.29 mg/ml glutamine, 100 unit penicillin and 100 μg/ml streptomycin. For both the P. berghei-luciferase and HepG2 cytotoxicity assays, 3×10^3 of the HepG2-A16-CD81EGFP cells in 5 μl of assay medium (DMEM without Phenol Red (Life Technologies, Calif.), 5% FBS, and 5× Pen Strep Glutamine (Life Technologies, Calif.)) at concentration 6×10^5 cells/ml were seeded in 1536-well plates (Greiner BioOne white solid bottom custom GNF mold) 20-26 hours prior to the actual infection. 18 hours prior to infection, 50 nl of compound in DMSO (0.5% final DMSO concentration per well) were transferred with Acoustic Transfer System (ATS) (Biosero) into the assay plates. Atovaquone (12-point serial dilution starting at 10 μM) and Puromycin (12-point serial dilution starting at 10 μM) were used as positive controls for Pb. liver stage assay and HepG2 cytotoxicity respectively. 0.5% DMSO was used as negative control for the both assays.
# An. stephensi mosquitoes, infected with P. berghei-luciferase, were provided by the New York University Insectary. P. berghei-luciferase sporozoites were freshly dissected from the infected A. stephensi mosquito salivary glands, filtered twice through a 20 μm nylon net filter using Steriflip Vacuum-Driven Filtration System (Millipore), counted in a hemocytometer, and then adjusted to final concentration 200 sporozoites per μl in the assay media. […] The HepG2-A16-CD81EGFP cell designated for toxicity studies were left uninfected, with 5 ul of additional assay media added to each well to maintain equal concentrations of compounds with P. berghei-luciferase infected plates. After incubation at 37° C. for 48 hours the exoerythrocytic growth and HepG2-A16-CD81EGFP cell viability were quantified by a bioluminescence measurement.
# The HepG2 cytotoxicity was assessed by removing the media through an inverted spin of the plates at 150 g for 30 s and addition of 2 μL of CellTiterGlo reagent (Promega diluted 1:2 with deionized water) per well using the MicroFlo liquid handler (BioTek). Immediately after addition of the luminescence reagent, the plates were vortexed for 10 s and read with an EnVision Multilabel reader (PerkinElmer). IC50 values were obtained as above.
# [3] = Plasmodium falciparum, DD2, 72 h
SMILES,Selectivity Index [1],"IC50 [1, 3] [nM]",IC50 [2] [nM],Selectivity Index ([1]; listed as 3),IC50 ([1]; listed as 3) [nM],Selectivity Index ([1]; listed as 20),IC50 ([1]; listed as 20) [nM]
"CCCCCC(=O)NC(Cc1ccc(N)cc1)C(=O)N[C@@H](Cc1ccc(N)cc1)C(=O)N[C@@H](CC(C)C)C(=O)[C@@]1(C)CO1 (stereo in doubt) [Analog 12, N—((R)-3-(4-aminophenyl)-1-(((S)-3-(4-aminophenyl)-1-(((S)-4-methyl-1-((R)-2-methyloxiran-2-yl)-1-oxopentan-2-yl)amino)-1-oxopropan-2-yl)amino)-1-oxopropan-2-yl)hexanamide]",0.02,59.6 ± 15.4,0.91 ± 0.25,–,–,–,–
"CCCCCC(=O)NC(Cc1ccc(N)cc1)C(=O)N[C@@H](Cc1ccc(N)cc1)C(=O)N[C@@H](Cc1ccccc1)C(=O)[C@@]1(C)CO1 (stereo in doubt) [Analog 13, N—((R)-3-(4-aminophenyl)-1-(((S)-3-(4-aminophenyl)-1-(((S)-1-((R)-2-methyloxiran-2-yl)-1-oxo-3-phenylpropan-2-yl)amino)-1-oxopropan-2-yl)amino)-1-oxopropan-2-yl)hexanamide]",13.96,68.2 ± 15.4,952 ± 275,–,–,–,–
"CCCCCC(=O)NC(Cc1ccc(NC(=O)OC(C)(C)C)cc1)C(=O)N[C@@H](Cc1ccc(NC(=O)OC(C)(C)C)cc1)C(=O)N[C@@H](CC(C)C)C(=O)[C@@]1(C)CO1 (stereo in doubt) [Analog 14, tert-butyl (4-((R)-3-(((S)-3-(4-((tert-butoxycarbonyl)amino)phenyl)-1-(((S)-4-methyl-1-((R)-2-methyloxiran-2-yl)-1-oxopentan-2-yl)amino)-1-oxopropan-2-yl)amino)-2-hexanamido-3-oxopropyl)phenyl)carbamate]",8.74,13.5 ± 4.69,118 ± 21.7,–,–,–,–
"CCCCCC(=O)NC(Cc1ccc(NC(=O)OC(C)(C)C)cc1)C(=O)N[C@@H](Cc1ccc(NC(=O)OC(C)(C)C)cc1)C(=O)N[C@@H](Cc1ccccc1)C(=O)[C@@]1(C)CO1 (stereo in doubt) [Analog 15, tert-butyl (4-((R)-3-(((S)-3-(4-((tert-butoxycarbonyl)amino)phenyl)-1-(((S)-1-((R)-2-methyloxiran-2-yl)-1-oxo-3-phenylpropan-2-yl)amino)-1-oxopropan-2-yl)amino)-2-hexanamido-3-oxopropyl)phenyl)carbamate]",3.75,12.2 ± 3.83,45.7 ± 15.7,–,–,–,–
"CCCCCC(=O)N[C@@H](Cc1ccccc1)C(=O)N[C@@H](CCCC)C(=O)N[C@@H](CC(C)C)C(=O)[C@@]1(C)CO1 [Analog 2, (S)-2-((S)-2-hexanamido-3-phenylpropanamido)-N—((S)-4-methyl-1-((R)-2-methyloxiran-2-yl)-1-oxopentan-2-yl)hexanamide]",5.62,4.04 ± 0.759,22.7 ± 8.42,–,–,–,–
"CCCCCC(=O)N[C@@H](Cc1ccncc1)C(=O)N[C@@H](CCCC)C(=O)N[C@@H](CC(C)C)C(=O)[C@@]1(C)CO1 [Analog 3, (S)-2-((S)-2-hexanamido-3-(pyridin-4-yl)propanamido)-N—((S)-4-methyl-1-((R)-2-methyloxiran-2-yl)-1-oxopentan-2-yl)hexanamide]",–,–,< 0.283,0.09,3.28 ± 0.674,–,–
"CCCCCC(=O)N[C@@H](Cc1ccc(N)cc1)C(=O)N[C@@H](CCCC)C(=O)N[C@@H](CC(C)C)C(=O)[C@@]1(C)CO1 [Analog 4, (S)-2-((S)-3-(4-aminophenyl)-2-hexanamidopropanamido)-N—((S)-4-methyl-1-((R)-2-methyloxiran-2-yl)-1-oxopentan-2-yl)hexanamide]",1.06,5.99 ± 1.08,6.32 ± 4.99,–,–,–,–
"CCCCCC(=O)N[C@@H](Cc1ccc(NC(=O)OC(C)(C)C)cc1)C(=O)N[C@@H](CCCC)C(=O)N[C@@H](CC(C)C)C(=O)[C@@]1(C)CO1 [Analog 5, tert-butyl (4-((S)-2-hexanamido-3-(((S)-1-(((S)-4-methyl-1-((R)-2-methyloxiran-2-yl)-1-oxopentan-2-yl)amino)-1-oxohexan-2-yl)amino)-3-oxopropyl)phenyl)carbamate]",14.45,5.55 ± 0.23,80.2 ± 26.5,–,–,–,–
"CCCCCC(=O)N[C@@H](Cc1c[nH]c2ccccc12)C(=O)N[C@@H](CCCC)C(=O)N[C@@H](CC(C)C)C(=O)[C@@]1(C)CO1 [Analog 6, (S)-2-((S)-2-hexanamido-3-(1H-indol-3-yl)propanamido)-N—((S)-4-methyl-1-((R)-2-methyloxiran-2-yl)-1-oxopentan-2-yl)hexanamide]",1.05,3.11 ± 0.026,3.27 ± 1.29,–,–,–,–
"CCCCCC(=O)N[C@@H](Cc1ccccc1)C(=O)N[C@@H](CCCC)C(=O)N[C@@H](Cc1ccccc1)C(=O)[C@@]1(C)CO1 [Analog 7, (S)-2-((S)-2-hexanamido-3-phenylpropanamido)-N—((S)-1-((R)-2-methyloxiran-2-yl)-1-oxo-3-phenylpropan-2-yl)hexanamide]",4.60,6.7 ± 0.451,30.8 ± 13.7,–,–,–,–
"CCCCCC(=O)N[C@@H](Cc1ccncc1)C(=O)N[C@@H](CCCC)C(=O)N[C@@H](Cc1ccccc1)C(=O)[C@@]1(C)CO1 [Analog 8, (S)-2-((S)-2-hexanamido-3-(pyridin-4-yl)propanamido)-N—((S)-1-((R)-2-methyloxiran-2-yl)-1-oxo-3-phenylpropan-2-yl)hexanamide]",0.07,3.87 ± 1.37,< 0.283,–,–,–,–
"CCCCCC(=O)N[C@@H](Cc1ccc(N)cc1)C(=O)N[C@@H](CCCC)C(=O)N[C@@H](Cc1ccccc1)C(=O)[C@@]1(C)CO1 [Analog 9, (S)-2-((S)-3-(4-aminophenyl)-2-hexanamidopropanamido)-N—((S)-1-((R)-2-methyloxiran-2-yl)-1-oxo-3-phenylpropan-2-yl)hexanamide]",41.69,81.8 ± 14,3410 ± 2310,–,–,–,–
"CCCCCC(=O)N[C@@H](Cc1ccc(NC(=O)OC(C)(C)C)cc1)C(=O)N[C@@H](CCCC)C(=O)N[C@@H](Cc1ccccc1)C(=O)[C@@]1(C)CO1 [Analog 10, tert-butyl (4-((S)-2-hexanamido-3-(((S)-1-(((S)-1-((R)-2-methyloxiran-2-yl)-1-oxo-3-phenylpropan-2-yl)amino)-1-oxohexan-2-yl)amino)-3-oxopropyl)phenyl)carbamate]",87.71,5.45 ± 2.49,478 ± 126,–,–,–,–
"CCCCCC(=O)N[C@@H](Cc1c[nH]c2ccccc12)C(=O)N[C@@H](CCCC)C(=O)N[C@@H](Cc1ccccc1)C(=O)[C@@]1(C)CO1 [Analog 11, (S)-2-((S)-2-hexanamido-3-(1H-indol-3-yl)propanamido)-N—((S)-1-((R)-2-methyloxiran-2-yl)-1-oxo-3-phenylpropan-2-yl)hexanamide]",0.66,9.77 ± 1.31,6.41 ± 2.26,–,–,–,–
"CCCCCC(=O)N[C@@H](Cc1c[nH]c2ccccc12)C(=O)N[C@@H](Cc1c[nH]c2ccccc12)C(=O)N[C@@H](CC(C)C)C(=O)[C@@]1(C)CO1 [Analog 16, N—((S)-1-(((S)-3-(1H-indol-3-yl)-1-(((S)-4-methyl-1-((R)-2-methyloxiran-2-yl)-1-oxopentan-2-yl)amino)-1-oxopropan-2-yl)amino)-3-(1H-indol-3-yl)-1-oxopropan-2-yl)hexanamide]",3.16,3.7 ± 0.144,11.7 ± 3.32,–,–,–,–
CCCCCC(=O)N[C@@H](Cc1ccncc1)C(=O)N[C@@H](CCCC)C(=O)N[C@@H](CC(C)C)C(=O)[C@@]1(C)CO1 [Analog 20],–,–,–,–,–,0.01,21.8 ± 3.67
